Assay: Study for confirmation of conversion to brexpiprazole in a buffer (stability of the evaluation compounds)
Format: physicochemical
Settings: in buffer, average of duplicate; for Concentration of brexpiprazole formed: 60-minute reaction sample; for Concentration of evaluation compound decreased: decrease in 60-minute vs 0-minute reaction sample
Procedure: The conversion from the evaluation compounds to brexpiprazole in a buffer (i.e., the stability of the evaluation compounds) was evaluated.
The Example 1 compound was dissolved in acetonitrile/water (1:1, v/v) to 10 mmol/L and further diluted with acetonitrile/water (1:1, v/v) to 100 μmol/L for use.
The other Example compounds and the Reference Example 5 compound to Reference Example 7 compound were each dissolved in DMSO to 10 mmol/L and further diluted with acetonitrile to 100 μmol/L for use, except for the following compounds.
The compounds of Examples 52, 95, 96, 117, and 130 (EX 52, EX 95, EX 96, EX 117, and EX 130) were dissolved in acetonitrile/water (8:2, v/v) to 10 mmol/L and further diluted with acetonitrile to 100 μmol/L for use.
The compound of Example 97 (EX 97) was dissolved in acetonitrile/water (8:2, v/v) to 10 mmol/L and further diluted with acetonitrile/water (8:2, v/v) to 100 μmol/L for use.
The compounds of Examples 15 and 116 (EX 15 and EX 116) were dissolved in DMSO to 1 mmol/L and further diluted with acetonitrile to 100 μmol/L for use.
The reaction was conducted by preparing each reaction solution such that the final concentration of each component was as follows. The test was conducted in duplicate.
For the compounds of Examples 1 to 8, 10 to 19, 26 to 27, 37, 50, 87 to 89, 91, 116, 121, 123, 150, and 151 (EX 1 to EX 8, EX 10 to EX 19, EX 26 to EX 27, EX 37, EX 50, EX 87 to EX 89, EX 91, EX 116, EX 121, EX 123, EX 150, and EX 151), and the compounds of Reference Examples 5 to 7 (REX 5 to REX 7), the reaction solution without the evaluation compound (198 μl) was pre-incubated at 37° C. for 3 minutes, and then each of the evaluation compound solutions (2 μl) was added and stirred; thereafter, the reaction was started at 37° C. At 0 minutes or 60 minutes after the start of the reaction, the reaction was stopped by adding and stirring a reaction stop solution (1000 μl) composed of acetonitrile/isopropanol (4:1, v/v) containing internal standard substances. However, the 0-minute reaction sample (198 μl) was prepared by adding the evaluation compound (2 μl) after adding the reaction stop solution (1000 μl). The samples after stopping the reaction were used as the measurement samples. Calibration curve samples with the same composition were prepared (final concentrations of the evaluation compounds and brexpiprazole: 0.01, 0.1, and 1 μmol/L, with the proviso that for the evaluation compounds only, the 0-minute reaction samples were also used as calibration curve samples for 1 μmol/L).
For the compounds of Examples 24 to 25, 28 to 29, 32 to 36, 40 to 49, 51 to 60, 62 to 64, 66 to 77, 80 to 86, 90, 92 to 111, 113, 115, 117 to 120, 122, 124 to 130, 132 to 147, and 152 to 160 (EX 24 to EX 25, EX 28 to EX 29, EX 32 to EX 36, EX 40 to EX 49, EX 51 to EX 60, EX 62 to EX 64, EX 66 to EX 77, EX 80 to EX 86, EX 90, EX 92 to EX 111, EX 113, EX 115, EX 117 to EX 120, EX 122, EX 124 to EX 130, EX 132 to EX 147, and EX 152 to EX 160), the reaction solution without the evaluation compound (148.5 μl) was pre-incubated at 37° C. for 3 minutes, and then each of the evaluation compound solutions (1.5 μl) was added and stirred; thereafter, the reaction was started at 37° C. At 0 minutes or 60 minutes after the start of the reaction, the reaction was stopped by adding and stirring a reaction stop solution (600 μl) composed of acetonitrile/isopropanol (4:1, v/v) containing internal standard substances. However, the 0-minute reaction sample (148.5 μl) was prepared by adding the evaluation compound (1.5 μl) after adding the reaction stop solution (600 μl). The samples after stopping the reaction were used as the measurement samples. Calibration curve samples with the same composition were prepared (final concentrations of the evaluation compounds and brexpiprazole: 0.01, 0.1, and 1 μmol/L, with the proviso that for the evaluation compounds only, the 0-minute reaction samples were also used as calibration curve samples for 1 μmol/L). […]

Structure (SMILES)	Concentration of brexpiprazole formed [nM]	Concentration of evaluation compound decreased [nM]
CC(C)(C)OP(=O)([O-])OC[N+]1(CCCCOc2ccc3ccc(=O)[nH]c3c2)CCN(c2cccc3sccc23)CC1 [EX 4, (4-(benzo[b]thiophen-4-yl)-1-(4-((2-oxo-1,2-dihydroquinolin-7-yl)oxy)butyl)piperazin-1-ium-1-yl)methyl tert-butyl phosphate]	0	20
CC(C)OP(=O)([O-])OC[N+]1(CCCCOc2ccc3ccc(=O)[nH]c3c2)CCN(c2cccc3sccc23)CC1 [EX 5, (4-(benzo[b]thiophen-4-yl)-1-(4-((2-oxo-1,2-dihydroquinolin-7-yl)oxy)butyl)piperazin-1-ium-1-yl)methyl isopropyl phosphate]	0	70
CCCCCCCCOP(=O)([O-])OC[N+]1(CCCCOc2ccc3ccc(=O)[nH]c3c2)CCN(c2cccc3sccc23)CC1 [EX 37, (4-(benzo[b]thiophen-4-yl)-1-(4-((2-oxo-1,2-dihydroquinolin-7-yl)oxy)butyl)piperazin-1-ium-1-yl)methyl octyl phosphate]	0	60
COc1ccc(C(=O)OCCCCCCOP(=O)([O-])OC[N+]2(CCCCOc3ccc4ccc(=O)[nH]c4c3)CCN(c3cccc4sccc34)CC2)cc1 [EX 58, (4-(benzo[b]thiophen-4-yl)-1-(4-((2-oxo-1,2-dihydroquinolin-7-yl)oxy)butyl)piperazin-1-ium-1-yl)methyl (6-((4-methoxybenzoyl)oxy)hexyl) phosphate]	0	40
O=c1ccc2ccc(OCCCC[N+]3(COP(=O)([O-])OCC#CCCl)CCN(c4cccc5sccc45)CC3)cc2[nH]1 [EX 63, (4-(benzo[b]thiophen-4-yl)-1-(4-((2-oxo-1,2-dihydroquinolin-7-yl)oxy)butyl)piperazin-1-ium-1-yl)methyl (4-chlorobut-2-yn-1-yl) phosphate]	0	20

Now from value to compound:

Concentration of brexpiprazole formed [nM]	Concentration of evaluation compound decreased [nM]	Structure (SMILES)
0	-110	O=c1ccc2ccc(OCCCC[N+]3(COP(=O)([O-])OCCCO)CCN(c4cccc5sccc45)CC3)cc2[nH]1 [EX 6, (4-(benzo[b]thiophen-4-yl)-1-(4-((2-oxo-1,2-dihydroquinolin-7-yl)oxy)butyl)piperazin-1-ium-1-yl)methyl (3-hydroxypropyl) phosphate]
0	-10	CC(C)(C)C(=O)OCOP(=O)([O-])OC[N+]1(CCCCOc2ccc3ccc(=O)[nH]c3c2)CCN(c2cccc3sccc23)CC1 [EX 25, (4-(benzo[b]thiophen-4-yl)-1-(4-((2-oxo-1,2-dihydroquinolin-7-yl)oxy)butyl)piperazin-1-ium-1-yl)methyl ((pivaloyloxy)methyl) phosphate]
0	0	CCCCCCCC(=O)OCOP(=O)([O-])OC[N+]1(CCCCOc2ccc3ccc(=O)[nH]c3c2)CCN(c2cccc3sccc23)CC1 [EX 27, (4-(benzo[b]thiophen-4-yl)-1-(4-((2-oxo-1,2-dihydroquinolin-7-yl)oxy)butyl)piperazin-1-ium-1-yl)methyl ((octanoyloxy)methyl) phosphate]
0	90	CCOC(=O)CCCC(=O)OCOP(=O)([O-])OC[N+]1(CCCCOc2ccc3ccc(=O)[nH]c3c2)CCN(c2cccc3sccc23)CC1 [EX 68, (4-(benzo[b]thiophen-4-yl)-1-(4-((2-oxo-1,2-dihydroquinolin-7-yl)oxy)butylpiperazin-1-ium-1-yl)methyl (((5-ethoxy-5-oxopentanoyl)oxy)methyl) phosphate]

Reference: US20260285888A1, “HETEROCYCLIC COMPOUND AND USE THEREOF” (OTSUKA PHARMACEUTICAL CO., LTD., priority 2023, published 2026)
